The results in this text go back to BindingDB's records for doi:10.1021/jm950568w (Universita Di Roma, 1996).

Test [1] concerns the target T1, Gag-Pol polyprotein [613-1167,R896S,E946D,S1117V]/[618-1043,R896S,E946D] (Human immunodeficiency virus 2, UniProt P04584, E946D/R896S/S1117V).
T1 construct: 613-1167; 618-1043
The experiment in a line: HIV RT Assay. The conditions noted are these: pH 7.8; 37 °C.

Test [2] addresses T2, Gag-Pol polyprotein [588-1027]/[588-1147] (Human immunodeficiency virus 1, UniProt P04585).
T2 construct: 588-1027; 588-1147
The experiment in a line: HIV RT Assay. The conditions noted are these: pH 7.8; 37 °C.

T1 sequence (P04584 613-1167, looked up, stated change not applied): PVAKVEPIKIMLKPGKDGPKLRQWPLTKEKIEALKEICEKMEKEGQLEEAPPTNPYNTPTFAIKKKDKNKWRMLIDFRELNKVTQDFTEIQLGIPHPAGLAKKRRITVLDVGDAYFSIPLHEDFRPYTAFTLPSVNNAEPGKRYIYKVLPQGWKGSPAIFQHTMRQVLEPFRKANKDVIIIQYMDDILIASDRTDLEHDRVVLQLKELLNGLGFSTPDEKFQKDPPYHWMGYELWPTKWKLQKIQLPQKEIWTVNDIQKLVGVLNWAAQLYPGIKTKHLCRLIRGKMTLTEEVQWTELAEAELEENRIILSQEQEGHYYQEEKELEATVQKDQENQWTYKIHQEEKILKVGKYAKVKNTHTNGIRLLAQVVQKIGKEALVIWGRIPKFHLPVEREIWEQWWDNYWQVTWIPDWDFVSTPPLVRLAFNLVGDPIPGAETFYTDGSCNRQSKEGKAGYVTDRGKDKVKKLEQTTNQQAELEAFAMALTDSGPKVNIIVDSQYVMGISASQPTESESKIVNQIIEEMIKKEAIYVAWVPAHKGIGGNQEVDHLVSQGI
T1 sequence (P04584 618-1043, looked up, stated change not applied): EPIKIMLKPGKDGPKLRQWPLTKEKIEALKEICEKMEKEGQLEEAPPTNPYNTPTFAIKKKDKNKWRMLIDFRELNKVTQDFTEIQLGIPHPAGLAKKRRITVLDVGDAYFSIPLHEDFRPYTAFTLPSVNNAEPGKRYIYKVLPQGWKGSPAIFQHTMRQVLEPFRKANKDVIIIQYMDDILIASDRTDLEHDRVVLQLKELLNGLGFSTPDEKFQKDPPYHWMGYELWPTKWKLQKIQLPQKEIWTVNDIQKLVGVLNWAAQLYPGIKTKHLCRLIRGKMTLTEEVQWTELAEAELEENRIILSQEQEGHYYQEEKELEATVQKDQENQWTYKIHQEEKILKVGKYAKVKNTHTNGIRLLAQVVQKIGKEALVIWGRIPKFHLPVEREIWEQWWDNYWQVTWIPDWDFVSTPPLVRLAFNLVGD

`Cc1ccnc2c1NC(=O)c1cccnc1N2C1CC1` [BI-RG-587] showed an IC50 in test [1] of more than 20 µM. `CCOC(=O)c1cccn1S(=O)(=O)c1cc(Cl)ccc1NC=O` [Ethyl 1-[(5-Chloro-2-formamidophenyl)sulfonyl]-1Hpyrrole-2-carboxylate] came in with an IC50 in test [2] of more than 20 µM. On the same count and under the same terms, the same measure for `CCOC(=O)c1cccn1S(=O)(=O)c1cc(Cl)ccc1NC(=O)CC` [Ethyl 1-[(5-Chloro-2-propionamidophenyl)sulfonyl]-1H-pyrrole-2-carboxylate]: more than 20 µM. As to `CCOC(=O)c1cccn1S(=O)(=O)c1cc(Cl)ccc1N` [ethyl 1-[(2-amino-5-chlorobenzene)sulfonyl]-1H-pyrrole-2-carboxylate], the IC50 in test [1] was more than 20 µM. Regarding `CCOC(=O)c1cccn1S(=O)(=O)c1cc(Cl)ccc1NC(C)=O` [ethyl 1-[(5-chloro-2-acetamidobenzene)sulfonyl]-1H-pyrrole-2-carboxylate], the IC50 in test [2] is more than 20 µM.

In test [2], `CCOC(=O)CC(=O)Nc1ccc(Cl)cc1S(=O)(=O)n1cccc1C(=O)OCC` [ethyl 1-{[5-chloro-2-(ethyl 2-formamidoacetate)benzene]sulfonyl}-1H-pyrrole-2-carboxylate] registered an IC50 of more than 20 µM. In test [1], `COC(=O)c1cccn1S(=O)(=O)c1cc(Cl)ccc1N` [methyl 1-[(2-amino-5-chlorobenzene)sulfonyl]-1H-pyrrole-2-carboxylate] returned an IC50 of more than 20 µM.

As a reminder, the IC50 is the concentration that inhibits the measured activity by half.
